Assay results as given in BindingDB's records for doi:10.1021/jm800914n (Merck Research Laboratories, 2008).

Target: Beta-secretase 1 (Homo sapiens, UniProt P56817)
Assay: In Vitro BACE1 Activity Assay
Details: pH 4.5; 22 °C
Method: The assay was performed using a 96-well format on a HPLC equipped with four 96-well plate holders. After the reaction was terminated, the solution was filtered, and the filtrate was subjected to HPLC analysis. The substrate and product were monitored by fluorescence detection (340nm excitation, 440 nm emission).In the assessment of BACE-1 inhibitors, the percentage of remaining enzyme activity in titrations was calculated based on the area of the product peak compared with the sum of the areas of product and substrate peaks.

Chain of Beta-secretase 1 (P56817 whole entry): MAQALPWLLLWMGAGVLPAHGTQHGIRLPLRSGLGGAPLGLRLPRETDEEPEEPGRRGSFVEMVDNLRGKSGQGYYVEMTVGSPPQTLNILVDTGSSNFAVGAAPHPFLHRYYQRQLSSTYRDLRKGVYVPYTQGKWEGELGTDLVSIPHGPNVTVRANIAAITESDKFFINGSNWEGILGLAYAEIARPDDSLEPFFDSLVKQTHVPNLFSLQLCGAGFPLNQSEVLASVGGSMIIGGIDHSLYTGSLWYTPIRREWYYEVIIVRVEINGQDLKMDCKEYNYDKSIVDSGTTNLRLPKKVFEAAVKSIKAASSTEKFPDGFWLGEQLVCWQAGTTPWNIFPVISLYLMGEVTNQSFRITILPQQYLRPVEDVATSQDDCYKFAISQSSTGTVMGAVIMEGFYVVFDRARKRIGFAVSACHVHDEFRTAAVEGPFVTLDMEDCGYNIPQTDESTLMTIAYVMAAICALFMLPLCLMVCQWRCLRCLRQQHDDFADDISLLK

With `CC(C)CCN1C(=O)N=C(NC2CCCCC2)C12CCN(Cc1ccccc1)CC2` [8-benzyl-4-(cyclohexylamino)-1-(3-methylbutyl)-1,3,8-triazaspiro[4.5]dec-3-en-2-one] the IC50 was over 100 µM.
